For 23 compounds, T/C results are on record in PubChem BioAssay AID328 (DTP/NCI, 2004).

Several values for one entry are separate records, joined by “and”; a condition that tells them apart may be missing. Identical values can stand only once. Inconclusive results and toxic doses are left out.

This test deals with BDF1 mice, P388 leukemia ip, median survival T/C. The test is described as follows: NCI In Vivo Anticancer Drug Screen. Data for tumor model P388 Leukemia (intraperitoneal) in B6D2F1 (BDF1) mice. The settings on record: endpoint: median survival time, higher = longer survival. Put shortly: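 Each value expresses how treatment altered survival: treated-mouse outcome over vehicle-mouse outcome, both groups bearing the transplanted tumour.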

Setting [1] is: dose: 100.0 mg/kg/injection, schedule: Q01DX009 (ip), vehicle: saline.
[2] abbreviates: dose: 100.0 mg/kg/injection, schedule: Q04DX003 (ip), vehicle: saline.
Where [3] appears, read: dose: 200.0 mg/kg/injection, schedule: Q01DX009 (ip), vehicle: saline.
Setting [4] is: dose: 200.0 mg/kg/injection, schedule: Q04DX003 (ip), vehicle: saline.
[5] abbreviates: dose: 400.0 mg/kg/injection, schedule: Q01DX009 (ip), vehicle: saline.
Setting [6] is: dose: 400.0 mg/kg/injection, schedule: Q04DX003 (ip), vehicle: saline.
[7] abbreviates: dose: 25.0 mg/kg/injection, schedule: Q04DX003 (ip), vehicle: saline with Tween-80.
The mark [8] stands for this setting: dose: 50.0 mg/kg/injection, schedule: Q01DX009 (ip), vehicle: saline with Tween-80.
The mark [9] stands for this setting: dose: 100.0 mg/kg/injection, schedule: Q01DX009 (ip), vehicle: saline with Tween-80.
Where [10] appears, read: dose: 200.0 mg/kg/injection, schedule: Q01DX009 (ip), vehicle: saline with Tween-80.
Setting [11] is: dose: 50.0 mg/kg/injection, schedule: Q01DX009 (ip), vehicle: saline.

For the compound `CC(C)CC(NC(=O)c1ccccc1)C(=O)O` (stereo not drawn), the T/C is, setting by setting: (dose: 100.0 mg/kg/injection, schedule: Q04DX003 (ip), vehicle: alkali diluted with water) 99 % of control; (dose: 200.0 mg/kg/injection, schedule: Q04DX003 (ip), vehicle: alkali diluted with water) 99 % of control; (dose: 400.0 mg/kg/injection, schedule: Q04DX003 (ip), vehicle: alkali diluted with water) 108 % of control.
In the case of `CCCCCCCCCCCC[N+](C)(C)C` (tested in a mixture with another compound), for the setting “dose: 9.2 mg/kg/injection, schedule: Q01DX009 (ip), vehicle: saline”, the T/C is 107 % of control.
Regarding `CCOC(=O)CCN1CCOCC1`, the T/C was 100 % of control under setting [1]; 95 % of control under setting [2]; 100 % of control under setting [3]; 100 % of control under setting [4]; 100 % of control under setting [5]; 108 % of control under setting [6].
With `CCCCN(CCCC)CC(O)c1ccc2cc(Cl)cc(Cl)c2n1` (stereo not drawn), the T/C is 110 % of control (dose: 6.25 mg/kg/injection, schedule: Q04DX003 (ip), vehicle: saline with Tween-80); 115 % of control (dose: 12.5 mg/kg/injection, schedule: Q04DX003 (ip), vehicle: saline with Tween-80); 110 % of control under setting [7].
In the case of `CC(C)Sc1nc(N)nc2nc[nH]c12`, the T/C reads like this: (dose: 6.25 mg/kg/injection, schedule: Q01DX009 (ip), vehicle: Klucel (hydroxypropylcellulose) (HPC)) 100 % of control; (dose: 12.5 mg/kg/injection, schedule: Q01DX009 (ip), vehicle: Klucel (hydroxypropylcellulose) (HPC)) 105 % of control; (dose: 25.0 mg/kg/injection, schedule: Q01DX009 (ip), vehicle: Klucel (hydroxypropylcellulose) (HPC)) 100 % of control; (dose: 50.0 mg/kg/injection, schedule: Q01DX009 (ip), vehicle: Klucel (hydroxypropylcellulose) (HPC)) 100 % of control; (dose: 100.0 mg/kg/injection, schedule: Q04DX003 (ip), vehicle: Klucel (hydroxypropylcellulose) (HPC)) 105 % of control; (dose: 200.0 mg/kg/injection, schedule: Q04DX003 (ip), vehicle: Klucel (hydroxypropylcellulose) (HPC)) 105 % of control.
In the case of `CCOCN(COCC)c1ccc(C)cc1`, the T/C was 97 % of control under setting [8], 104 % of control under setting [9] and 97 % of control under setting [10].
On to `COc1ccccc1OC(=O)Nc1ccc(C)c([N+](=O)[O-])c1`, for which the T/C was 100 % of control under setting [7]; 104 % of control (dose: 50.0 mg/kg/injection, schedule: Q04DX003 (ip), vehicle: saline with Tween-80); 100 % of control (dose: 100.0 mg/kg/injection, schedule: Q04DX003 (ip), vehicle: saline with Tween-80).
Consider `COC1N(C2CC(O)C(CO)O2)C(=O)NC(=O)C1(F)Br` (stereo not drawn), for which the T/C reads like this: (dose: 5.0 mg/kg/injection, schedule: Q01DX009 (ip), vehicle: saline) 90 % of control; (dose: 10.0 mg/kg/injection, schedule: Q01DX009 (ip), vehicle: saline) 109 % of control; (dose: 20.0 mg/kg/injection, schedule: Q01DX009 (ip), vehicle: saline) 109 % of control; (dose: 40.0 mg/kg/injection, schedule: Q01DX009 (ip), vehicle: saline) 122 % of control; under setting [11], 111 % of control; under setting [1], 113 % of control. Moreover, the T/C under setting [2] is 104 % of control; the T/C under setting [3] is 106 % of control; the T/C under setting [4] is 122 % of control; the T/C under setting [5] is 94 % of control; the T/C under setting [6] is 150 % of control.
Turning to `Cc1c2ccc3ccccc3c2c[n+]2ccccc12`, the T/C by setting is: (dose: 5.0 mg/kg/injection, schedule: Q01DX009 (ip), vehicle: saline with Tween-80) 118 % of control; (dose: 5.0 mg/kg/injection, schedule: Q04DX003 (ip), vehicle: saline with Tween-80) 108 % of control; (dose: 10.0 mg/kg/injection, schedule: Q01DX009 (ip), vehicle: saline with Tween-80) 86 % of control; (dose: 10.0 mg/kg/injection, schedule: Q04DX003 (ip), vehicle: saline with Tween-80) 108 % of control; (dose: 20.0 mg/kg/injection, schedule: Q04DX003 (ip), vehicle: saline with Tween-80) 116 % of control.
In the case of `Cc1ccc(C(=O)N(O)c2ccccc2)cc1`, the T/C is 98 % of control under setting [8], 95 % of control under setting [9] and 104 % of control under setting [10].
`CCN(CC)C(N)=Nc1ccc(NC(=O)c2ccc(C(=O)Nc3ccc(N=C(N)N(CC)CC)cc3)cc2)cc1`: the T/C runs as follows: (dose: 3.12 mg/kg/injection, schedule: Q01DX009 (ip), vehicle: saline) 151 % of control; (dose: 6.25 mg/kg/injection, schedule: Q01DX009 (ip), vehicle: saline) 196 % of control; (dose: 12.5 mg/kg/injection, schedule: Q01DX009 (ip), vehicle: saline) 105 % of control.
As to `CC1=CC(=O)C(CO)=CC1=O`, the T/C is 105 % of control (dose: 0.38 mg/kg/injection, schedule: Q01DX009 (ip), vehicle: saline with Tween-80); 108 % of control (dose: 0.75 mg/kg/injection, schedule: Q01DX009 (ip), vehicle: saline with Tween-80); 110 % of control (dose: 1.5 mg/kg/injection, schedule: Q01DX009 (ip), vehicle: saline with Tween-80); 115 % of control (dose: 3.0 mg/kg/injection, schedule: Q01DX009 (ip), vehicle: saline with Tween-80); 107 % of control (dose: 6.0 mg/kg/injection, schedule: Q01DX009 (ip), vehicle: saline with Tween-80).
Consider `CC(C)COC(=O)C1(N)CCCC1`, for which the T/C is, setting by setting: under setting [11], 100 % of control; (dose: 66.0 mg/kg/injection, schedule: Q01DX009 (ip), vehicle: saline with Tween-80) 95 % of control and 108 % of control; under setting [1], 177 % of control; (dose: 150.0 mg/kg/injection, schedule: Q01DX009 (ip), vehicle: saline with Tween-80) 108 % of control and 116 % of control; under setting [3], 95 % of control.
Take `CC1(C)OC(CI)C(COS(C)(=O)=O)O1` (stereo not drawn): the T/C under setting [8] was 100 % of control, the T/C under setting [9] is 91 % of control and the T/C under setting [10] was 112 % of control.
For the compound `COP1(=O)OCC2OC(n3cnc4c(N)ncnc43)C(O)C2O1` (stereo not drawn), the T/C under setting [1] was 88 % of control.
In the case of `CC(C)CCCC(C)C1CCC2C3CCC45CC4C(=O)CCC5(C)C3CCC12C` (stereo not drawn), the T/C (dose: 100.0 mg/kg/injection, schedule: Q04DX003 (ip), vehicle: alcohol) was 115 % of control; the T/C (dose: 200.0 mg/kg/injection, schedule: Q04DX003 (ip), vehicle: alcohol) is 100 % of control; the T/C (dose: 400.0 mg/kg/injection, schedule: Q04DX003 (ip), vehicle: alcohol) was 100 % of control.
Consider `O=C(O)/C(=C/c1ccc(Cl)cc1)c1ccccc1`, for which the T/C is, setting by setting: under setting [9], 91 % of control; under setting [10], 94 % of control.
As for `ClCc1ccncc1`, the T/C was 100 % of control under setting [2] and 100 % of control under setting [4].
For `COc1ccc2c(c1)CCN1C2CCN2C(=O)CCC21` (stereo not drawn), the T/C by setting is: (dose: 100.0 mg/kg/injection, schedule: Q01DX009 (ip), vehicle: saline sonified) 104 % of control; (dose: 200.0 mg/kg/injection, schedule: Q01DX009 (ip), vehicle: saline sonified) 113 % of control; (dose: 400.0 mg/kg/injection, schedule: Q01DX009 (ip), vehicle: saline sonified) 100 % of control.
As to `CSCCC(NC(C)=O)C(=O)O` (stereo not drawn), the T/C is, setting by setting: under setting [1], 96 % of control; under setting [2], 87 % of control; under setting [3], 88 % of control; under setting [4], 87 % of control; under setting [6], 91 % of control.
Turning to `CNC(=S)N1N=C(C)CC1=O`, the T/C (dose: 37.5 mg/kg/injection, schedule: Q01DX009 (ip), vehicle: saline with Tween-80) is 106 % of control and the T/C (dose: 75.0 mg/kg/injection, schedule: Q01DX009 (ip), vehicle: saline with Tween-80) was 99 % of control.
On to `COc1ccc(C2=NNC(=O)OC2c2ccccc2)cc1` (stereo not drawn), for which the T/C by setting is: (dose: 25.0 mg/kg/injection, schedule: Q01DX009 (ip), vehicle: saline with Tween-80) 92 % of control and 102 % of control; under setting [8], 91 % of control and 96 % of control and 99 % of control; under setting [9], 100 % of control and 110 % of control; under setting [10], 91 % of control and 102 % of control and 105 % of control.
Regarding `CCC(=O)NC`, the T/C under setting [1] was 122 % of control; the T/C under setting [2] is 100 % of control; the T/C under setting [3] was 100 % of control; the T/C under setting [4] was 104 % of control; the T/C under setting [5] was 109 % of control; the T/C under setting [6] is 100 % of control.
